# Where “and” joins values, the source holds several entries; their conditions need not be identical. Equal entries are not always repeated. Entries after “also recorded” stand apart in the source; their conditions may differ.
# Key:
# [1] = test system: patients with dual disorder; assay: Length of hospitalization of treated patients (Table I); settings: human, in vivo
# [2] = test system: morphine addicted monkeys; assay: Craving and abstinence syndrome in narcotic-addicted monkeys; type: in vivo; settings: bar-presses; withdrawal symptoms, aggressive behavior
# Excerpt: Equally the same, at present it is well known that all addictions have in common a biochemical factor—the alteration of the dopamine synthesis and its transporters.
# Based on the above, we further hypothesized that the combination of both agents would render better results than any one of them alone.
# [3] = type: in vivo; settings: with Polycitra orally, urine pH about 7.8 to 8
# Excerpt: Once known that AMPT produced crystalluria, which prevented its use in humans, the present inventor conducted research to find a solution to the crystalluria problem. Specifically, this research was directed to provide a composition containing AMPT that could be used in the treatment of patients suffering from different conditions and without the formation of AMPT crystalluria. This was accomplished with extensive research in animals, such as mice, rats, mongrel and beagle dogs, to which AMPT with a urine alkalinizer was administered. The alkalinization was obtained with Polycitra, administered orally, and in an amount to obtain a urine pH of about 7.8 to 8.
# [4] = test system: rats made dependent on alcohol; assay: Rats made dependent on alcohol (25% alcohol solution); type: in vivo; settings: AMPT 300 mg per kg of body weight
# Method: Subsequently, it was observed that rats made dependent on alcohol (25% alcohol solution) would prefer again to drink plain water, instead of the alcohol solution upon which they had been made dependent, when treated with AMPT (300 mg per kg of body weight), with their preference being manifested after 2-4 days of treatment.
# [5] = test system: tobacco addiction (nicotine); assay: Treatment of smokers (nicotine dependence); parameters: species or system human; settings: in vivo
# Method: Furthermore, the present inventor utilized the combination of Haloperidol and AMPT by administering small doses of Haloperidol, 2 mg, (6 mgs total per day) for a healthy human, weighing 70 kg, simultaneously with the initiation of treatment with AMPT.
# Generally, the administration of Haloperidol was discontinued after 7-10 days, while AMPT was administered for a period of at least three months in doses of 250 mg b.i.d.
# [6] = test system: rats exposed to cigarette extract and smoke; assay: Rats given cigarette extract water and cigarette smoke, choice test; type: in vivo; settings: after 18 hours
# Excerpt: A cigarette extract was obtained by burning cigarettes and collecting the tar, nicotine, and other products of cigarette combustion by a perforated plastic tube tied to the exhaust of a miniature vacuum cleaner. The air and smoke was passed through a container of water in which the cigarette extract was deposited. This drinking water was subsequently given to the animals. In addition to bottle feeding rats with the cigarette extract water (equivalent to 6 cigarettes per rat per day), the rats were also exposed to cigarette smoke. The rats were exposed for 2 hours at 8 hour intervals, for a total of 6 hours a day, to cigarette smoke in a sealed chamber. After a period of 4 months, 24 animals died of different causes, pneumonia among them, and 66 survived. The remaining 66 animals were divided in two groups: 35 were treated with AMPT orally, and 31 were kept as controls. The urine was alkalinized in both groups with Polycitra to a pH of about 7.8.
# At the end of 4 months, all rats were given the choice to continue drinking the same cigarette extract contaminated water or drink pure drinking water in equal amounts. All animals were given the choice to be in the cigarette smoke filled chamber or to use clean air quarters. […]
# addiction to heroin = test system: addiction to heroin
# Method: (§1) Sixteen patients, randomly selected, addicted to heroin, cocaine, or cocaine and alcohol, were assigned to 3 different treatment groups, as follows:
# (§2) a) A group of 6 patients, 3 of them addicted to heroin, and another 3 addicted to cocaine plus alcohol, were treated with AMPT alone.
# (§3) b) Another group of 6 patients, 3 addicted to heroin and another 3 to cocaine plus alcohol, were treated with Haloperidol alone.
# (§4) c) Another group of 4 patients, 2 addicted to heroin and another 2 addicted to cocaine and alcohol, were treated with placebo from the first day of admission.
# (§5) The treatment protocol was as follows:
# (§6) 2) All patients received the same proper amount of the alkalinizer Polycitra to produce a urinary pH around 7.8.
# (§7) 4) All patients started treatment immediately after they arrived before they could develop any signs of withdrawal.
# (§8) 5) Because of the difficulty to fulfill the above requirement of having consumed drugs on the same day of admission, all patients could not be treated simultaneously. This requirement was instated to maintain similarity with many other patients in our general program, where patients are started on treatment immediately after they arrive, even if they arrive immediately after consuming large amounts of the addicting drug(s).
# [7] = test system: addiction to cocaine plus alcohol; assay: 16 patient study, patients addicted to cocaine plus alcohol; type: in vivo, human; settings: three patients
# Method: as §1, §2, §3, §4, §5, §6, §7, §8
# [8] = test system: craving and abstinence symptoms; assay: Unintentional simple blind study with defective AMPT capsules; type: in vivo, human; settings: capsules containing less than half the intended amount of AMPT
# Excerpt: Moreover, it was confirmed that the effective agent in abolishing craving and abstinence symptoms in humans was the action of AMPT and none of the other agents given—Akineton or Polycitra—when in our first studies in humans, unknowingly we administered to patients capsules in which the amount of AMPT contained was less than half the amount of AMPT they should have had. The excessive amount of filler (calcium stearate) put in the capsulating machine in order to render the blended mixture more fluid and less compact, given the heavy consistency of the AMPT that was otherwise difficult for incorporation into capsules, was so excessive that it decreased the amount of AMPT in the capsules to less than half of what it should have been.
# Once we knew the cause of the failure, we started to administer the proper dosage of AMPT. The patients then responded. […] The number of patients treated with different addictions, convinced us that the association of AMPT with Haloperidol produces very outstanding and beneficial results.
# heroin addiction = assay: Case reports, heroin addiction
# [9] = test system: homovanilic acid (HVA), a dopamine metabolite; assay: Urinary dopamine metabolites during Haloperidol administration; type: in vivo, human; settings: for dopamine metabolites (HVA) in urine: bipolar, manic and paranoid schizophrenic patients
# Method: While studying human subjects, diagnosed with bipolar illness, the effects of administering Haloperidol on the metabolites of the neurotransmitter dopamine (DA) were analyzed.
# The urinary studies were done for a period of 6 weeks in eight patients chosen for the study (three manic patients and five schizophrenics of the paranoid type).
# alcoholism = assay: Treatment of alcoholic patients; type: in vivo, human; settings: follow-up 2 to 3 years
smiles,measurement,setting,value
"CC(N)(Cc1ccc(O)cc1)C(=O)O (stereo not drawn) [AMPT, alpha-methyl-para-tyrosine]",Average Length of Hospitalization,[1],47 days
same,Longest Hospitalization,[1],97 days
same,Shortest Hospitalization,[1],26 days
same,craving and manifestations of the abstinence syndrome,[2],abolition of craving and withdrawal in all animals; also recorded: abolish the craving for morphine and the manifestations of the abstinence syndrome
same,"safety (autopsy, macroscopic, microscopic, electron-microscopy)",[3],safety being confirmed by autopsy
same,time until preference for plain water instead of alcohol solution,[4],2 to 4 days
same,time until craving to smoke is lost,[5],2 to 4 days and 2 to 3 days
same,choice of chamber,[6],totally avoiding the smoke filled compartment
same,choice of drinking water,"[6]; AMPT orally, discontinued two days in advance",chose to continue drinking the pure water
same,day when patients had no craving or abstinence symptoms,addiction to heroin; three patients,sixth day
same,day when craving for cocaine started to remit,[7],fifth day
same,day when craving for cocaine was totally extinguished,[7],seventh
same,patient response,[8],failed to respond
same,time to almost total cessation of the acute symptoms,schizophrenia and mania; Haloperidol 10-15 mg t.i.d. when added,24 to 30 h
same,relapse of symptoms at follow-up on maintenance,"schizophrenia and mania; case reports 8, 10, 11, follow-up 1-2 years",did not have any more phases of mania or depression
same,time to discharge from hospital,"heroin addiction; case reports 1, 2, 16, 17, 18",65 days and 78 days
same,craving and abstinence symptoms,"heroin addiction; case reports 1, 2, 17, 18",no abstinence symptoms appearing
same,relapse to drugs at follow-up,heroin addiction; follow-up 14 months to 1½ years,had not taken any drugs
OC(CCN1CCCCC1)(c1ccccc1)C1CC2C=CC1C2 (stereo not shown) [Akineton],dopamine metabolites (HVA) in urine,[9],not related to the increase in dopamine metabolites
"O=C(CCCN1CCC(O)(c2ccc(Cl)cc2)CC1)c1ccc(F)cc1 [Haloperidol, 4-[4-(p-chlorophenyl)-4-hydroxy-piperidino]-4′-fluorobutyrophe]",craving and manifestations of the abstinence syndrome,[2],did not modify the craving
same,clinical symptoms after a month of treatment,"[9]; Haloperidol exclusively, up to 60 mg a day, three paranoid and two manic patients",not totally controlled
same,dopamine metabolites (HVA) in urine,[9],increasing; also recorded: increased gradually and quantitatively in urine
same,time to maximum HVA concentration in urine,[9]; continued Haloperidol administration,3-4 weeks
same,overall conclusion on treatment of addiction,"addiction to heroin; 16 patient study, heroin and cocaine plus alcohol",useless
same,severity of withdrawal symptoms compared with no treatment agent,"addiction to heroin; human, in vivo",more severe
same,onset of severe manifestations of withdrawal,addiction to heroin; three patients,26 to 30 h
same,craving for cocaine,[7]; up to sixth day,did not subside
O=C1CC[C@@]2(O)[C@H]3Cc4ccc(O)c5c4[C@@]2(CCN3CC2CC2)[C@H]1O5 [Naltrexone],relapse into alcohol at follow-up,alcoholism,none

# Reference: patent US20040167164A1, “Compositions and methods for treating particular chemical addictions and mental illnesses” (priority 1998, published 2004)
